Results as given in publication PMC4785407, “Reduction Impairs the Antibacterial Activity but Benefits the LPS Neutralization Ability of Human Enteric Defensin 5” (Scientific Reports, 2016).
Ends that are not written are not given here.

Tests used:
[1] = tested on: interaction between LPS and LBP (mouse LBP); assay: LPS-binding protein (LBP) block assay; format: biochemical; conditions: 200 ng/mL, positive control; mouse LBP 60 ng/mL, biotinylated LPS 50 ng/mL
Method: The effects of peptides on the interaction between LPS and low concentrations of LBP were determined as previously described. Briefly, the plates of a LBP ELISA kit (Boster EK1274) were blocked by the incubation of 1% BSA prepared in 10 mM sodium phosphate buffer (pH 7.4) at 37 °C for 1 h, which were subsequently washed with 0.1% Tween-20. Aliquots of 100 μL of mouse LBP (Sigma SRP6034, 60 ng/mL) were added and incubated at 37 °C for 1.5 h. Peptides were prepared in sterile water, with concentrations of 12.5, 25, and 50 μg/mL, respectively. Biotinylated LPS (50 ng/mL) was added in the absence or presence of peptides (pre-incubated at 37 °C for 30 min). Polymyxin B (200 ng/mL) was used as a positive control. The binding of LPS to LBP was determined using a chromogenic reaction between HRP-conjugated streptavidin (Boster BA1088) and TMB (Sigma 860336). Data were processed by subtracting the absorbance in the absence of LPS. Statistical significance was determined by the Student−Newman−Keuls multiple comparisons test.
Figure 5. The efficiencies of peptides in blocking the interaction between LPS and LBP. A LBP ELISA plate was blocked by 1% BSA and subsequently washed with 0.1% Tween-20. Aliquots of 100 μL of the mouse LBP (60 ng/mL) was added and incubated at 37°C for 1.5 h. Peptides were prepared in sterile water, with concentrations of 12.5, 25, and 50 μg/mL, respectively. Biotinylated LPS (50 ng/mL) was then added in the absence or presence of peptides (pre-incubated at 37°C for 30 min). Data were processed by subtracting the absorbance in the absence of biotinylated LPS. Statistical significance was determined by the Student−Newman−Keuls multiple comparisons test. n.s, not significant; **, p < 0.01, relative to the value of the group solely treated with LPS.

bacteria = conditions: cited from earlier work
From the text: Oxidized human defensin 5 (HD5OX), a 32-residue α defensin, is stored in the secretory granules of Paneth cells in the small intestine as a propeptide (E20-R94) and is processed by anionic and/or meso isoforms of trypsin during secretion or shortly thereafter at a cleavage site between R62 and A63[6]. […] We have previously prepared bioactive HD5OX using Pichia pastoris and design ... || HD5OX is an endogenous bactericidal agent.

[2] = tested on: LPS-binding protein (LBP); LPS-stimulated macrophages; conditions: cited from earlier work
From the text: Human defensins are also noted for their immunoregulatory properties. […] Additionally, some defensins are able to suppress the pro-inflammatory effect of bacterial lipopolysaccharide (LPS). For example, H ...

[3] = flexible N-terminus; cited from earlier work
From the text: Changes in function follow changes in structure.

Polymyxin B [PB, reference compound]
effect on the interaction between LPS and LBP [1]: significantly inhibited the LPS-LBP interaction

human β defensin (HBD) 1 (DHYNCVSSGGQCLYSACPIFTKIQGTCYRGKAKCCK; ends and bridges not checked; cysteine pairing not given here; UniProt P60022 33-68, looked up) [HBD1, ubiquitously expressed peptide in human epithelia]
antibacterial activity upon reduction (bacteria; disulfide reduction): enhanced upon reduction
interaction between LPS and low concentrations of LBP; TNF-α production [2]: can block the interaction between LPS and low concentrations of LPS-binding protein

HNP1: human neutrophil peptide cited from the literature
antibacterial property on loss of disulfide bonds (bacteria): loss of disulfide bonds attenuates the antibacterial property
interaction between LPS and low concentrations of LBP; TNF-α production [2]: can block the interaction between LPS and low concentrations of LPS-binding protein

HBD3: human β defensin cited from the literature (GIINTLQKYYCRVRGGRCAVLSCLPKEEQIGKCSTRGRKCCRRKK; ends and bridges not checked; cysteine pairing not given here; UniProt P81534 23-67, looked up)
function without disulfide bonds (bacteria): can function well without disulfide bonds
conformation in SDS micelles [3]: adopts a α-helical-containing structure
